# Patent US20230115945A1, “AMINOPYRIMIDINE COMPOUNDS” (TYRA BIOSCIENCES, INC., priority 2019, published 2023)
# Key:
# Conditions in all cases: 11-point 3-fold dilution, qPCR readout
# FGFR1 = target: T1, FGFR1 (Homo sapiens, UniProt P11362); test: Kinase binding assay (Kd), FGFR1
# T1 construct: made in house; host or cells: E. coli host derived from BL21, infected with T7 phage
# Protocol: (§1) Kinase-tagged T7 phage strains were prepared in an E. coli host derived from the BL21 strain. E. coli were grown to log-phase and infected with T7 phage and incubated with shaking at 32° C. until lysis. The lysates were centrifuged and filtered to remove cell debris. Streptavidin-coated magnetic beads were treated with biotinylated small molecule ligands for 30 minutes at room temperature to generate affinity resins for kinase assays. The liganded beads were blocked with excess biotin and washed with blocking buffer SeaBlock (Pierce), 1% BSA, 0.05% Tween 20, 1 mM DTT to remove unbound ligand and to reduce non-specific binding. Binding reactions were assembled by combining kinases, liganded affinity beads, and test compounds in 1× binding buffer (20% SeaBlock, 0.17×PBS, 0.05% Tween 20, 6 mM DTT).
# (§2) Test compounds were prepared as 111X stocks in 100% DMSO. Kds were determined using an 11-point 3-fold compound dilution series with three DMSO control points. All compounds for Kd measurements are distributed by acoustic transfer (non-contact dispensing) in 100% DMSO. The compounds were then diluted directly into the assays such that the final concentration of DMSO was 0.9%. All reactions performed in polypropylene 384-well plate. Each was a final volume of 0.02 ml. The assay plates were incubated at room temperature with shaking for 1 hour and the affinity beads were washed with wash buffer (lx PBS, 0.05% Tween 20). The beads were then re-suspended in elution buffer (lx PBS, 0.05% Tween 20, 0.5 μM non-biotinylated affinity ligand) and incubated at room temperature with shaking for 30 minutes. The kinase concentration in the eluates was measured by qPCR.
# (§3) Binding constants were calculated with a standard dose-response curve using the Hill equation: […]
# (§4) The Hill Slope was set to −1. Curves were fitted using a non-linear least square fit with the Levenberg-Marquardt algorithm.
# FGFR2 = target: T2, FGFR2 (Homo sapiens, UniProt P21802); test: Kinase binding assay (Kd), FGFR2
# T2 construct: made in house; host or cells: E. coli host derived from BL21, infected with T7 phage
# Protocol: as §1, §2, §3, §4
# FGFR3 = target: T3, FGFR3 (Homo sapiens, UniProt P22607); test: Kinase binding assay (Kd), FGFR3
# T3 construct: made in house; host or cells: E. coli host derived from BL21, infected with T7 phage
# Protocol: as §1, §2, §3, §4
# FGFR3 (V555M) = target: T4, FGFR3 (V555M) (Homo sapiens, UniProt P22607, V555M); test: Kinase binding assay (Kd), FGFR3 (V555M)
# T4 construct: made in house; host or cells: E. coli host derived from BL21, infected with T7 phage
# Protocol: as §1, §2, §3, §4
# FGFR4 = target: T5, FGFR4 (Homo sapiens, UniProt P22455); test: Kinase binding assay (Kd), FGFR4
# T5 construct: made in house; host or cells: E. coli host derived from BL21, infected with T7 phage
# Protocol: as §1, §2, §3, §4
# T3 sequence (P22607 23-806): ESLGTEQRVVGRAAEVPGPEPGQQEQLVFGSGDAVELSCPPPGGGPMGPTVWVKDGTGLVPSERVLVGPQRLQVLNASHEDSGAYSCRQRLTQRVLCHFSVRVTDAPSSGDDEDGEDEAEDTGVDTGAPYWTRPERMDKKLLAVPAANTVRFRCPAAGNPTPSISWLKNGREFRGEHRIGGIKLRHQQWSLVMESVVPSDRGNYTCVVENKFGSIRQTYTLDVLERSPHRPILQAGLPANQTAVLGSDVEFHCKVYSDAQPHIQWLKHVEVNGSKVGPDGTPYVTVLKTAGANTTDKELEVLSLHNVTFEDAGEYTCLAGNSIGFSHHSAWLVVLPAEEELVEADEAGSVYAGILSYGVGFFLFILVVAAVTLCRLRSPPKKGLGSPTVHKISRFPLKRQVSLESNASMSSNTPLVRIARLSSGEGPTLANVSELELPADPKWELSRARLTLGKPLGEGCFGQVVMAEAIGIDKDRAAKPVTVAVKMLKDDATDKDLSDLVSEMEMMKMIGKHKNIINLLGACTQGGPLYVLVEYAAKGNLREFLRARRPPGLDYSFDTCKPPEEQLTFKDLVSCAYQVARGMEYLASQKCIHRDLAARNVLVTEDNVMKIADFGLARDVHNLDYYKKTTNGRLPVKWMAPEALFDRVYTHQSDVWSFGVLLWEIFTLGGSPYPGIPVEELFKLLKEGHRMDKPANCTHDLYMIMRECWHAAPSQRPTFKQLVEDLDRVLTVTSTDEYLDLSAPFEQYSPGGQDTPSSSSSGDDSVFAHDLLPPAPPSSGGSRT
# T1 sequence (P11362 22-822): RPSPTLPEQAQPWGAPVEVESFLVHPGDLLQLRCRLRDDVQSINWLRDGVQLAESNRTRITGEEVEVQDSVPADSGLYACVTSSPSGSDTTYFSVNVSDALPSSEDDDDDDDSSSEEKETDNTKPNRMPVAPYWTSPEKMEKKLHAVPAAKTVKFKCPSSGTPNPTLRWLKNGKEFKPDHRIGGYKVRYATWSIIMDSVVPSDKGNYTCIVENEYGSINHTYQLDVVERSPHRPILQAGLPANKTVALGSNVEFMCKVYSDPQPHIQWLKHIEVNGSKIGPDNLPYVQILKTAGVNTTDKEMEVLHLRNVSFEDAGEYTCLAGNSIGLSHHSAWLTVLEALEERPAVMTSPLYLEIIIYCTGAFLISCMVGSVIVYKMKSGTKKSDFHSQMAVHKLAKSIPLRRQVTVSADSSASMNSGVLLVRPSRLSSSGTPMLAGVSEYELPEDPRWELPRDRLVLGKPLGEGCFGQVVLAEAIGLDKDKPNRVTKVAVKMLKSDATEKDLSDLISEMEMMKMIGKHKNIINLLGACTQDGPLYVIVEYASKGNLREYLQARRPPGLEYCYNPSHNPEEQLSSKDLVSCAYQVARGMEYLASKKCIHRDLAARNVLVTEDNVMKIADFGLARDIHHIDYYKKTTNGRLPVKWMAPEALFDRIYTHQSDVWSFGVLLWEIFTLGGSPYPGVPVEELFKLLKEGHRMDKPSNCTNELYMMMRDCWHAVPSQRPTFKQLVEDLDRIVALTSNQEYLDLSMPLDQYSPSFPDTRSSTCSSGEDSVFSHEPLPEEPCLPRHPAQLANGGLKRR
# T2 sequence (P21802 22-821): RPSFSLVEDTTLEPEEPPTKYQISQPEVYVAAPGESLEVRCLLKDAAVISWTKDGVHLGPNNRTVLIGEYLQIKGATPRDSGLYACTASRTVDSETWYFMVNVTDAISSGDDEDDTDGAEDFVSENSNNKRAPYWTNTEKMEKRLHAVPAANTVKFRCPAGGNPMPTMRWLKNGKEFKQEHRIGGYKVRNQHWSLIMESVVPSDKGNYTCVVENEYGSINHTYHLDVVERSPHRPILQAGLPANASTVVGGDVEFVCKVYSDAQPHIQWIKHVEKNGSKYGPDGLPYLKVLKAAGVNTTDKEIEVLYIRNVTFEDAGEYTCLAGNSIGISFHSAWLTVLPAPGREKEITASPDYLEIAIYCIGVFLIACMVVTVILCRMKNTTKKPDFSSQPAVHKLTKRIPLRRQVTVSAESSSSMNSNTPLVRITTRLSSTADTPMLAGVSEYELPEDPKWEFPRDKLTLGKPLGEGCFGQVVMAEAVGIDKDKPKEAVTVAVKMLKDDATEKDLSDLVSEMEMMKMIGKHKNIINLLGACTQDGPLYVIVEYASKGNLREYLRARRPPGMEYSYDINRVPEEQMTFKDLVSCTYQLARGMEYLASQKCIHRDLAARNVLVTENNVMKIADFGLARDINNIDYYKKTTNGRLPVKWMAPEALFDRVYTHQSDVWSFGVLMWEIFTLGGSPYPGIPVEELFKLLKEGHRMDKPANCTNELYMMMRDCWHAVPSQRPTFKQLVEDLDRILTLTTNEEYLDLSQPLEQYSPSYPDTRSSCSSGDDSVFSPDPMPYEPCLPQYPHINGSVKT
# T5 sequence (P22455 22-802): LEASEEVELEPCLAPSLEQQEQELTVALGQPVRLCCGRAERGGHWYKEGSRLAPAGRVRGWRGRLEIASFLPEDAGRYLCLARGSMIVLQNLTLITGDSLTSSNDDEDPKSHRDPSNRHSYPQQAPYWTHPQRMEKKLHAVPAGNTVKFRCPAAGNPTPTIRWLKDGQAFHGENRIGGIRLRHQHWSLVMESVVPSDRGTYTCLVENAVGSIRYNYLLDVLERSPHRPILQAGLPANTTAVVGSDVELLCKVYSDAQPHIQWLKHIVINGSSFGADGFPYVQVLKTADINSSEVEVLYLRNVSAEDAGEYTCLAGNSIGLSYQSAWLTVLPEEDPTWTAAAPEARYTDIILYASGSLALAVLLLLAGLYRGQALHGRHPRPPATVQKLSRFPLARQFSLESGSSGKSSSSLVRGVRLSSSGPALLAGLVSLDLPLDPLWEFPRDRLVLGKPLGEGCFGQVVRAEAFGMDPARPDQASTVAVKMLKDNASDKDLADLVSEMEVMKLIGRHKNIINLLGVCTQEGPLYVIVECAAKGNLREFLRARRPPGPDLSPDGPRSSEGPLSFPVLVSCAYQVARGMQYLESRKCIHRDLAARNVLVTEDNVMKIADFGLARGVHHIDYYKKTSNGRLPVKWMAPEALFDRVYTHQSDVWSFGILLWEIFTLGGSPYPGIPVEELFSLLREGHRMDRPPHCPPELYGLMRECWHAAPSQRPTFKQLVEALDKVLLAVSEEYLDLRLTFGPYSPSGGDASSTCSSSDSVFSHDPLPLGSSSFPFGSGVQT
# T4 sequence (P22607 23-806 V555M): as the sequence (P22607 23-806) above, with V533M counted along it
Compound,Kd (FGFR1) [nM],Kd (FGFR2) [nM],Kd (FGFR3) [nM],Kd (FGFR3 (V555M)) [nM],Kd (FGFR4) [nM]
"CS(C)(=O)=Nc1ccc(Nc2ncc(Cl)c(-c3c[nH]c4ccccc34)n2)cc1 [Example 8, 5-chloro-N-[4-[[dimethyl(oxo)-λ^6-sulfanylidene]amino]phenyl]-4-(1H-indol-3-yl)pyrimidin-2-amine]",19,24,29,4,180
"CCOc1cc(N=S(C)(C)=O)ccc1Nc1ncc(C)c(-c2c[nH]c3c(C)cccc23)n1 [Example 9, N-[4-[[dimethyl(oxo)-λ^6-sulfanylidene]amino]-2-ethoxy-phenyl]-5-methyl-4-(7-methyl-1H-indol-3-yl)pyrimidin-2-amine]",350,3300,370,57,57
"CS(C)(=O)=Nc1ccc(Nc2nccc(-c3c[nH]c4ccccc34)n2)cc1 [Example 10, N-[4-[[dimethyl(oxo)-λ^6-sulfanylidene]amino]phenyl]-4-(1H-indol-3-yl)pyrimidin-2-amine]",350,3300,370,57,57
"CS(C)(=O)=Nc1ccc(Nc2cc(-c3c[nH]c4ccccc34)ncn2)cc1 [Example 12, N-[4-[[dimethyl(oxo)-λ^6-sulfanylidene]amino]phenyl]-6-(1H-indol-3-yl)pyrimidin-4-amine]",350,3300,370,57,57
"CS(C)(=O)=Nc1ccc(Nc2nccc(-n3ccc4ccccc43)n2)cc1 [Example 13, N-[4-[[dimethyl(oxo)-λ^6-sulfanylidene]amino]phenyl]-4-indol-1-yl-pyrimidin-2-amine]",350,3300,370,57,57
"Cc1cnc(Nc2ccc(N=S(C)(C)=O)cc2)nc1-n1ccc2ccccc21 [Example 14, N-[4-[[dimethyl(oxo)-λ^6-sulfanylidene]amino]phenyl]-4-indol-1-yl-5-methyl-pyrimidin-2-amine]",190,110,170,9,1500
"CN1CCS(=O)(=Nc2ccc(Nc3nccc(-n4ccc5ccccc54)n3)cc2)CC1 [Example 16, 4-Indol-1-yl-N-[4-[(4-methyl-1-oxo-1,4-thiazinan-1-ylidene)amino]phenyl]-pyrimidin-2-amine]",2200,600,570,140,9500
"C=CC(=O)Nc1cc(N=S(C)(C)=O)ccc1Nc1ncc(C)c(-c2c[nH]c3ccccc23)n1 [Example 20, N-[5-[[Dimethyl(oxo)-λ^6-sulfanylidene]amino]-2-[[4-(1H-indol-3-yl)-5-methyl-pyrimidin-2-yl]amino]phenyl]prop-2-enamide]",37,51,27,4,120
"Cc1ccc2c(-c3nc(Nc4ccc(N=S(C)(C)=O)cc4)ncc3C)c[nH]c2c1 [Example 28, N-[4-[[dimethyl(oxo)-λ^6-sulfanylidene]amino]phenyl]-5-methyl-4-(6-methyl-1H-indol-3-yl)pyrimidin-2-amine]",27,63,44,4,290
"Cc1cnc(Nc2ccc(N=S(C)(C)=O)cc2)nc1-c1c[nH]c2cc(F)ccc12 [Example 29, N-[4-[[dimethyl(oxo)-λ^6-sulfanylidene]amino]phenyl]-4-(6-fluoro-1H-indol-3-yl)-5-methyl-pyrimidin-2-amine]",15,46,21,4,210
"COc1ccc2c(-c3nc(Nc4ccc(N=S(C)(C)=O)cc4)ncc3C)c[nH]c2c1 [Example 30, N-[4-[[dimethyl(oxo)-λ^6-sulfanylidene]amino]phenyl]-4-(6-methoxy-1H-indol-3-yl)-5-methyl-pyrimidin-2-amine]",27,41,35,2,190
"COc1cc(Nc2ncc(C)c(-c3c[nH]c4c(F)cccc34)n2)ccc1N=S(C)(C)=O [Example 32, N-[4-[[dimethyl(oxo)-λ^6-sulfanylidene]amino]-3-methoxy-phenyl]-4-(7-fluoro-1H-indol-3-yl)-5-methyl-pyrimidin-2-amine]",2,3,3,1,52
"COc1cc(Nc2ncc(C)c(-c3c[nH]c4c(OC)cccc34)n2)ccc1N=S(C)(C)=O [Example 33, N-[4-[[dimethyl(oxo)-λ^6-sulfanylidene]amino]-3-methoxy-phenyl]-4-(7-methoxy-1H-indol-3-yl)-5-methyl-pyrimidin-2-amine]",4,6,19,2,120
"Cc1ccc2c(-c3nc(Nc4ccc(N5CCS(=N)(=O)CC5)cc4)ncc3C)c[nH]c2c1 [Example 34, N-[4-(1-imino-1-oxo-1,4-thiazinan-4-yl)phenyl]-5-methyl-4-(6-methyl-1H-indol-3-yl)pyrimidin-2-amine]",14,39,30,2,230
"COc1cc(N2CCS(=N)(=O)CC2)ccc1Nc1ncc(Cl)c(-c2c[nH]c3ccccc23)n1 [Example 35, 5-Chloro-N-[4-(1-imino-1-oxo-1,4-thiazinan-4-yl)-2-methoxy-phenyl]-4-(1H-indol-3-yl)pyrimidin-2-amine]",72,200,130,9,86
"COc1cc(S(C)(=N)=O)ccc1Nc1ncc(Cl)c(-c2c[nH]c3ccccc23)n1 (stereo not shown) [Example 36, 5-Chloro-4-(1H-indol-3-yl)-N-[2-methoxy-4-(methylsulfonimidoyl)-phenyl]pyrimidin-2-amine]",72,67,89,4,57
"CN=S(C)(=O)c1ccc(Nc2ncc(Cl)c(-c3c[nH]c4ccccc34)n2)c(OC)c1 (stereo not shown) [Example 37, 5-Chloro-N-[4-(N,S-dimethylsulfonimidoyl)-2-methoxy-phenyl]-4-(1H-indol-3-yl)pyrimidin-2-amine]",500,1200,290,28,120
"CCN1CCS(=O)(=Nc2ccc(Nc3ncc(Cl)c(-c4c[nH]c5ccccc45)n3)c(OC)c2)CC1 [Example 39, 5-Chloro-4-(1H-indol-3-yl)-N-[2-methoxy-4-[(4-ethyl-1-oxo-1,4-thiazinan-1-ylidene)-amino]phenyl]pyrimidin-2-amine]",58,170,57,6,66
"COc1cc(N=S2(=O)CCN(C(C)C)CC2)ccc1Nc1ncc(Cl)c(-c2c[nH]c3ccccc23)n1 [Example 40, 5-Chloro-4-(1H-indol-3-yl)-N-[4-[(4-isopropyl-1-oxo-1,4-thiazinan-1-ylidene)amino]-2-methoxy-phenyl]pyrimidin-2-amine]",80,860,110,10,100
"COc1cc(S(C)(=N)=O)ccc1Nc1ncc(Cl)c(-n2ccc3ccccc32)n1 (stereo not shown) [Example 41, 5-chloro-4-indol-1-yl-N-[2-methoxy-4-(methyl-sulfonimidoyl)phenyl]pyrimidin-2-amine]",9000,18000,6000,180,6300
"COc1cc(S(C)(=N)=O)ccc1Nc1ncc(C)c(-n2ccc3ccccc32)n1 (stereo not shown) [Example 42, 4-Indol-1-yl-N-[2-methoxy-4-(methylsulfonimidoyl)phenyl]-5-methyl-pyrimidin-2-amine]",3000,3300,1800,110,4200
"COc1cc(S(C)(=N)=O)ccc1Nc1nccc(-n2ccc3ccccc32)n1 (stereo not shown) [Example 43, 4-Indol-1-yl-N-[2-methoxy-4-(methylsulfonimidoyl)phenyl]-pyrimidin-2-amine]",5000,4000,3400,680,7500
"COc1cc(N2CCS(=N)(=O)CC2)ccc1Nc1ncc(Cl)c(-n2ccc3ccccc32)n1 [Example 44, 5-Chloro-N-[4-(1-imino-1-oxo-1,4-thiazinan-4-yl)-2-methoxy-phenyl]-4-indol-1-yl-pyrimidin-2-amine]",2200,15000,2800,42,4100
